Reference: the supplement of paper PMC11208160

Test: recombinant barcode read abundance after kanamycin selection (control-corrected) (log10(CPM+1)); higher = more efficient recombination; sequences stand for … in AGTGCAGAGAAAATCGGCCAGTTTTCTCTGCCTGCAGTCCGCATGCCGT…AGATTTATGCAGCGGACTGCCTTTCTCCCAAAGTGATAAACCGGACAGTATCATGGACCGGTTTTCCCGGTAATCCGTATTTGCAAGGTTGGTTTCACT; site = the 11-nt target
Method in brief: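 In a pooled screen in E. coli, targets were paired with target-binding loops of the IS621 bridge RNA. Each oligo carried a promoter, a target, a barcode and the first 104 bridge RNA bases driven by J23119, and was Gibson-cloned into a vector holding the remaining 73 bp and a T7-inducible recombinase before co-electroporation with a donor plasmid. Duplicate platings went onto chloramphenicol/ampicillin LB agar as the control or onto chloramphenicol/ampicillin/kanamycin with 0.1 mM IPTG. Recombination efficiency is the averaged, control-corrected count per million of barcodes at recombinant junctions, given as log10(CPM+1).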
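Also: IS621 recombinase and bridge RNA in Escherichia coli cells.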

Row | Sequence | recombinant barcode read abundance (log10)
1 | TGTCGACCTTGGGTTCTAACCTGTTGCCT (site AGTCGACCTAG) | 0.596
2 | TGTCGACCTTGGGTTCTAACCTGTTGCCT (site CGTCGACCTAG) | 0.113
3 | TGTCGACCTTGGGTTCTAACCTGTTGCCT (site GGTCGACCTAG) | 0.0191
4 | TGTCGACCTTGGGTTCTAACCTGTTGCCT (site TGTCGACCTAG) | 0.709
5 | TGTCGGACTTGGGTTCTAACCTGTTGCAG (site TGTCGGACTAT) | 0.197
6 | TGTCGGACTTGGGTTCTAACCTGTTGCAG (site TGTCGGACTCT) | 1.01
7 | TGTCGGACTTGGGTTCTAACCTGTTGCAG (site TGTCGGACTGT) | 0.127
8 | TGTCGGACTTGGGTTCTAACCTGTTGCAG (site TGTCGGACTTT) | 0.041
9 | TGTGCCTCTTGGGTTCTAACCTGTTGCCT (site TGTACCTCTAG) | 0.368
10 | TGTGCCTCTTGGGTTCTAACCTGTTGCCT (site TGTCCCTCTAG) | 0.02
11 | TGTGCCTCTTGGGTTCTAACCTGTTGCCT (site TGTGCCTCTAG) | 0.564
12 | TGTGCCTCTTGGGTTCTAACCTGTTGCCT (site TGTTCCTCTAG) | 0.173
13 | TGTTACCCTTGGGTTCTAACCTGTTGCCT (site TGGTACCCTAG) | 0.0146
14 | TGTTACCCTTGGGTTCTAACCTGTTGCCT (site TGTTACCCTAG) | 0.434
15 | TGTTAGACTTGGGTTCTAACCTGTTGCCT (site TGTTAGACTAG) | 0.164
16 | TGTTAGACTTGGGTTCTAACCTGTTGCCT (site TGTTAGTCTCG) | 0.113
17 | TGTTCATCTTGGGTTCTAACCTGTTGCCT (site TGTTCATCTAG) | 0.00521
18 | TGTTCATCTTGGGTTCTAACCTGTTGCCT (site TGTTCTTCTAG) | 0.0677
19 | TGTTCTTCTTGGGTTCTAACCTGTTGCCT (site TGTTCATCTAG) | 0.0245
20 | TGTTCTTCTTGGGTTCTAACCTGTTGCCT (site TGTTCTTCTAG) | 0.12
21 | TGTTGGCCTTGGGTTCTAACCTGTTGCCT (site TGTTGCACTAG) | 0.0375
22 | TGTTGGCCTTGGGTTCTAACCTGTTGCCT (site TGTTGGCCTAG) | 0.143

Row | Sequence | recombinant barcode read abundance (log10)
23 | TTAACTACTTGGGTTCTAACCTGTTGCTA (site TTAACTACTAA) | 0
24 | TTAACTACTTGGGTTCTAACCTGTTGCTA (site TTAACTACTCA) | 0.0937
25 | TTAACTACTTGGGTTCTAACCTGTTGCTA (site TTAACTACTGA) | 0.0479
26 | TTAACTACTTGGGTTCTAACCTGTTGCTA (site TTAACTACTTA) | 0.152
27 | TTAACTACTTGGGTTCTAACCTGTTGCTG (site TTAACTACTAA) | 0.0189
28 | TTAACTACTTGGGTTCTAACCTGTTGCTG (site TTAACTACTCA) | 0.425
29 | TTAACTACTTGGGTTCTAACCTGTTGCTG (site TTAACTACTGA) | 0.0228
30 | TTAACTACTTGGGTTCTAACCTGTTGCTG (site TTAACTACTTA) | 0.0609
31 | TTACGCTCTTGGGTTCTAACCTGTTGCTA (site GGTTATCCTCC) | 0.191
32 | TTACGCTCTTGGGTTCTAACCTGTTGCTA (site TTACGCTCTTA) | 0.621
33 | TTACGGGCTTGGGTTCTAACCTGTTGCGG (site TTACGAGCTCC) | 1.71
34 | TTACGGGCTTGGGTTCTAACCTGTTGCGG (site TTACGCGCTCC) | 0.183
35 | TTACGGGCTTGGGTTCTAACCTGTTGCGG (site TTACGGGCTCC) | 2.58
36 | TTACGGGCTTGGGTTCTAACCTGTTGCGG (site TTACGTGCTCC) | 0.189
37 | TTACTAGCTTGGGTTCTAACCTGTTGCGT (site AGACTAGCTAC) | 0.0536
38 | TTACTAGCTTGGGTTCTAACCTGTTGCGT (site TTACTAGCTAC) | 1.98
39 | TTACTCTCTTGGGTTCTAACCTGTTGCCT (site TAACTCTCTAG) | 0.127
40 | TTACTCTCTTGGGTTCTAACCTGTTGCCT (site TCACTCTCTAG) | 0.141
41 | TTACTCTCTTGGGTTCTAACCTGTTGCCT (site TGACTCTCTAG) | 0.137
42 | TTACTCTCTTGGGTTCTAACCTGTTGCCT (site TTACTCTCTAG) | 2.13
43 | TTAGGGACTTGGGTTCTAACCTGTTGCCT (site TTAGGGACTAG) | 2.18
44 | TTAGGGACTTGGGTTCTAACCTGTTGCCT (site TTAGGGCCTAG) | 0.0947

Row | Sequence | recombinant barcode read abundance (log10)
45 | TTAGGGACTTGGGTTCTAACCTGTTGCCT (site TTAGGGGCTAG) | 0.517
46 | TTAGGGACTTGGGTTCTAACCTGTTGCCT (site TTAGGGTCTAG) | 0.108
47 | TTAGGGGCTTGGGTTCTAACCTGTTGCCT (site TTAGGGACTAG) | 0.911
48 | TTAGGGGCTTGGGTTCTAACCTGTTGCCT (site TTAGGGCCTAG) | 0.08
49 | TTAGGGGCTTGGGTTCTAACCTGTTGCCT (site TTAGGGGCTAG) | 1.51
50 | TTAGGGGCTTGGGTTCTAACCTGTTGCCT (site TTAGGGTCTAG) | 0.0155
51 | TTAGGTCCTTGGGTTCTAACCTGTTGCAG (site TTAGATCCTAT) | 0.182
52 | TTAGGTCCTTGGGTTCTAACCTGTTGCAG (site TTAGGTCCTCT) | 2.5
53 | TTAGTAACTTGGGTTCTAACCTGTTGCCT (site CTAGTACCTAG) | 0.0115
54 | TTAGTAACTTGGGTTCTAACCTGTTGCCT (site TTAGTAACTAG) | 1.21
55 | TTAGTACCTTGGGTTCTAACCTGTTGCCT (site TTAGTACCTAG) | 2.55
56 | TTAGTACCTTGGGTTCTAACCTGTTGCCT (site TTAGTCCCTAG) | 0.218
57 | TTAGTACCTTGGGTTCTAACCTGTTGCCT (site TTAGTGCCTAG) | 0.135
58 | TTAGTACCTTGGGTTCTAACCTGTTGCCT (site TTAGTTCCTAG) | 0.369
59 | TTAGTCCCTTGGGTTCTAACCTGTTGCCG (site CTAGTCCCTCG) | 1.09
60 | TTAGTCCCTTGGGTTCTAACCTGTTGCCG (site TTAGTCCCTCG) | 2.14
61 | TTAGTGCCTTGGGTTCTAACCTGTTGCCT (site TTAGTACCTAG) | 1.55
62 | TTAGTGCCTTGGGTTCTAACCTGTTGCCT (site TTAGTCCCTAG) | 0.0383
63 | TTAGTGCCTTGGGTTCTAACCTGTTGCCT (site TTAGTGCCTAG) | 2.14
64 | TTAGTGCCTTGGGTTCTAACCTGTTGCCT (site TTAGTTCCTAG) | 0.0759
65 | TTAGTTCCTTGGGTTCTAACCTGTTGCCT (site TTAGTACCTAG) | 0.146
66 | TTAGTTCCTTGGGTTCTAACCTGTTGCCT (site TTAGTCCCTAG) | 0.186

Row | Sequence | recombinant barcode read abundance (log10)
67 | TTAGTTCCTTGGGTTCTAACCTGTTGCCT (site TTAGTGCCTAG) | 0
68 | TTAGTTCCTTGGGTTCTAACCTGTTGCCT (site TTAGTTCCTAG) | 0.634
69 | TTATAAGCTTGGGTTCTAACCTGTTGCCA (site GTATGAGCTTG) | 0.0336
70 | TTATAAGCTTGGGTTCTAACCTGTTGCCA (site TTATAAGCTTG) | 0.269
71 | TTATTCACTTGGGTTCTAACCTGTTGCCT (site TCATTGACTAG) | 0.0352
72 | TTATTCACTTGGGTTCTAACCTGTTGCCT (site TTATTCACTAG) | 1.48
73 | TTCAAGTCTTGGGTTCTAACCTGTTGCCT (site TTCAAGACTAG) | 0.102
74 | TTCAAGTCTTGGGTTCTAACCTGTTGCCT (site TTCAAGCCTAG) | 0.198
75 | TTCAAGTCTTGGGTTCTAACCTGTTGCCT (site TTCAAGGCTAG) | 0.0708
76 | TTCAAGTCTTGGGTTCTAACCTGTTGCCT (site TTCAAGTCTAG) | 0.33
77 | TTCACGTCTTGGGTTCTAACCTGTTGCCT (site TTCACGTCTAG) | 0.202
78 | TTCACGTCTTGGGTTCTAACCTGTTGCCT (site TTCATGTCTAG) | 0.0406
79 | TTCAGACCTTGGGTTCTAACCTGTTGCCT (site AGGTACACTGT) | 0.0824
80 | TTCAGACCTTGGGTTCTAACCTGTTGCCT (site TTCAGACCTAG) | 0.912
81 | TTCCAAACTTGGGTTCTAACCTGTTGCGG (site TTCCAAACTCC) | 1.31
82 | TTCCAAACTTGGGTTCTAACCTGTTGCGG (site TTCCACACTCC) | 0.193
83 | TTCCTATCTTGGGTTCTAACCTGTTGCCT (site TACCTATCTAG) | 0.221
84 | TTCCTATCTTGGGTTCTAACCTGTTGCCT (site TCCCTATCTAG) | 0.071
85 | TTCCTATCTTGGGTTCTAACCTGTTGCCT (site TGCCTATCTAG) | 0.0749
86 | TTCCTATCTTGGGTTCTAACCTGTTGCCT (site TTCCTATCTAG) | 0.354
